{"source": "paper PMC10799292", "about": "“The Role of β-Defensin 1 Against Porphyromonas gingivalis Lipopolysaccharide-Mediated Inflammation in the THP-1 Cell Line” (Cureus, 2023)", "type_in_all_cases": "cell-based, human", "key": {"[1]": {"system": "THP-1 cells", "assay": "Intracellular ROS generation, DCFDA assay", "settings": "β-defensin 1 22.62 ng/mL 24 h after Pg-LPS 1 µg/mL 1 h; DCFDA 30 min, ex 470 nm, em 635 nm; untreated control 2379", "procedure": "Untreated control and Pg-LPS treated wells were also maintained. The cells were washed with PBS, and 50 µl of Dichlorodihydrofluorescein diacetate (DCFDA) was added, followed by incubation for 30 minutes. After incubation, excess dye was removed with PBS, and fluorescence was observed using a fluorescent microscope (Olympus CKX41 with Optika Pro5 CCD camera) and quantified with a fluorimeter at 470 nm excitation and emission at […] (Qubit 3.0, Life Technologies, USA), displaying the results in arbitrary units (AU).\nThe effect of β-defensin 1 on ROS generation in THP-1 cells stimulated with Pg-LPS was studied. DCFDA, a fluorogenic dye, measures hydroxyl, peroxyl, and other ROS activities within the cell. After entering the cell, DCFDA is deacetylated by cellular esterases into a non-fluorescent compound. This nonfluorescent chemical is then oxidized by ROS into […] (DCF), which, upon excitation with a blue filter, emits green fluorescence. When THP-1 cells were stimulated with Pg-LPS, there was a considerable increase in fluorescence, which decreased upon treatment with β-defensin 1, as shown in Figure 7 and Table 2."}, "[2]": {"system": "THP-1 cells", "assay": "Apoptosis by flow cytometry (Annexin V & Dead Cell)", "settings": "β-defensin 1 22.62 ng/mL 24 h after Pg-LPS 1 µg/mL; untreated control 87.25%", "procedure": "Untreated control and Pg-LPS treated wells were also maintained. To the tubes, 100 μL of the Muse™ Annexin V & Dead Cell Reagents were added separately. The tubes were completely mixed by pipetting up and down or spinning at a medium speed for three to five seconds, followed by 20 minutes of incubation in the dark at room temperature. The cells were examined with a Flow Cytometer, gated against untreated control cells, and evaluated for apoptosis with the Muse FCS 3.0 software.\nThe Muse Annexin V & Dead Cell Kit is a method to analyze cells in various stages of apoptosis, where fluorescently labeled Annexin V binds to phosphatidylserine (PS), which translocates to the outer surface of the cell membrane upon the onset of apoptosis. 7-AAD is excluded from live and healthy cells and permeates late-stage apoptotic and dead cells. […] The result is depicted in Figure 9."}, "[3]": {"system": "THP-1 differentiated macrophage cell line", "assay": "Cytotoxicity evaluation of β-defensin 1 by MTT method", "settings": "24 h, 12.5-200 ng/mL", "procedure": "The THP-1 cell line was cultured in DMEM and supplemented with 10% FBS, sodium bicarbonate, L-glutamine, and an antibiotic solution containing penicillin (100 U/mL), amphotericin B (2.5 µg/mL), and streptomycin (100 µg/mL). The cells were maintained in a 5% humidified CO2 incubator (NBS Eppendorf, Germany) at 37°C. To induce differentiation into macrophages, the THP-1 cell line was treated with 25 ng/mL phorbol 12-myristate 13-acetate (PMA) (cat. 91585, Sigma-Aldrich, USA) and incubated for 48 hours. Following incubation, the cells were seeded in a 96-well culture plate at a density of 5x10^4 cells/well and incubated for 24 hours in a humidified 5% CO2 incubator at 37°C.\nInverted phase contrast microscopy (IPCM) using an Olympus CKX41 microscope (Olympus, Japan) equipped with an Optika Pro5 CCD camera (Optika, Italy) was utilized to directly observe the cells. Cell viability was determined using the MTT (3-(4,5-Dimethylthiazol-2-yl)-2,5-diphenyltetrazolium bromide) assay (Sigma, M-5655). […] The absorbance of this colored solution can be quantified by measuring at approximately 570 nm using a spectrophotometer.\nThe whole plate was analyzed under a microscope with an IPCM, and the results were photographed. […] The purple formazan crystals were dissolved in dimethyl sulfoxide (DMSO) and the absorbance (OD) was measured at 570 nm using a microplate reader. […]"}, "[4]": {"system": "THP-1 cells", "assay": "Cell cycle distribution by flow cytometry", "settings": "co-treated with β-defensin 1, Pg-LPS stimulated", "procedure": "Untreated control and Pg-LPS stimulated cells were also maintained. The MUSE Cell Cycle Kit was added, and the manufacturer's instructions were followed."}, "[5]": {"system": "Inducible nitric oxide synthase", "assay": "Inducible nitric oxide synthase inhibition in lysate of Pg-LPS stimulated THP-1 cells", "settings": "for Inducible nitric oxide synthase Percentage inhibition Average / Inducible nitric oxide synthase Percentage inhibition 1 / Inducible nitric oxide synthase Percentage inhibition 2: Pg-LPS 1 µg/mL, 24 h; for Inducible nitric oxide synthase Percentage inhibition Average: mean of duplicates; for Inducible nitric oxide synthase Percentage inhibition 1: replicate 1; for Inducible nitric oxide synthase Percentage inhibition 2: replicate 2", "procedure": "For inducing differentiation of THP-1 cells into macrophages, the cell line was premixed with 25 ng/mL PMA and incubated for 48 hours. After incubation, 5x10^4 cells were activated with Pg-LPS (LPS: 1 µg/mL) for one hour. Pg-LPS stimulated cells were exposed to different concentrations (6.25, 12.5, and 25 ng/mL) of β-defensin 1 and incubated for 24 hours. After incubation, the following anti-inflammatory assays were conducted utilizing the cell lysate.\nNitric oxide synthase was measured using the method reported by Salter et al.. The cell lysate was homogenized in 2 ml of 4-(2-hydroxyethyl)-1-piperazineethanesulfonic acid (HEPES) buffer. The assay system contained 0.1 mL of 2 µmol/L L-Arginine, 0.1 mL of 4 µmol/L manganese chloride, 0.1 mL of 10 mmol/L 30 µg dithiothreitol (DTT), 0.1 mL of 1 mmol/L NADPH, 0.1 mL of 4 µmol/L tetrahydropterin, 0.1 mL of 10µmol/L oxygenated hemoglobin, and 0.1 mL of cell lysate. Enzyme activity was measured by recording an increase in absorbance at 401 nm, and the following equation was used: […]"}}, "note": "No end group written: not given here.", "data": [{"substance": "β-defensin 1: β-Defensin 1 peptide was purchased from ThermoFisher Scientific, USA; cationic antimicrobial peptide (DHYNCVSSGGQCLYSACPIFTKIQGTCYRGKAKCCK; ends and bridges not checked; cysteine pairing not given here; UniProt P60022 33-68, looked up)", "values": [{"measurement": "ROS generation, Fluorescence intensity", "setting": "[1]", "result": 5006.24, "unit": "AU"}, {"measurement": "live cells", "setting": "[2]", "result": 77.35, "unit": "%"}, {"measurement": "cytotoxicity (in words)", "setting": "[3]", "result": "dose-dependent cytotoxicity"}, {"measurement": "arrest in the G0/G1 phase (in words)", "setting": "[4]", "result": "reduced"}, {"measurement": "Inducible nitric oxide synthase Percentage inhibition Average", "setting": "[5]; 6.25 ng/mL", "result": 19.08, "unit": "%"}, {"measurement": "Inducible nitric oxide synthase Percentage inhibition 1", "setting": "[5]; 6.25 ng/mL", "result": 18.99, "unit": "%"}, {"measurement": "Inducible nitric oxide synthase Percentage inhibition 2", "setting": "[5]; 6.25 ng/mL", "result": 19.17, "unit": "%"}, {"measurement": "Inducible nitric oxide synthase Percentage inhibition Average", "setting": "[5]; 12.5 ng/mL", "result": 34.275, "unit": "%"}, {"measurement": "Inducible nitric oxide synthase Percentage inhibition 1", "setting": "[5]; 12.5 ng/mL", "result": 34.63, "unit": "%"}, {"measurement": "Inducible nitric oxide synthase Percentage inhibition 2", "setting": "[5]; 12.5 ng/mL", "result": 33.92, "unit": "%"}, {"measurement": "Inducible nitric oxide synthase Percentage inhibition Average", "setting": "[5]; 25 ng/mL", "result": 50.135, "unit": "%"}, {"measurement": "Inducible nitric oxide synthase Percentage inhibition 1", "setting": "[5]; 25 ng/mL", "result": 50.27, "unit": "%"}, {"measurement": "Inducible nitric oxide synthase Percentage inhibition 2", "setting": "[5]; 25 ng/mL", "result": 50, "unit": "%"}, {"measurement": "inducible nitric oxide synthase percentage inhibition (in words)", "setting": "[5]; 6.25, 12.5, and 25 ng/mL, Pg-LPS stimulated", "result": "increased in a concentration-dependent manner"}]}]}
